Experimental data from ChEMBL document CHEMBL5325426, “Structure-based discovery of potent USP28 inhibitors derived from Vismodegib” (Eur J Med Chem, 2023).
Active and inactive are the calls of the source. No cut-off for these calls is given here.

Assays:
[1] = biological target: T1, Ubiquitin carboxyl-terminal hydrolase 25 (Homo sapiens) (UniProt Q9UHP3); experiment: Inhibition of USP25 in human HCT-116 cells assessed as downregulation of Tankyrase 1/2 protein level; assay type: cell-based
T1 sequence (whole entry): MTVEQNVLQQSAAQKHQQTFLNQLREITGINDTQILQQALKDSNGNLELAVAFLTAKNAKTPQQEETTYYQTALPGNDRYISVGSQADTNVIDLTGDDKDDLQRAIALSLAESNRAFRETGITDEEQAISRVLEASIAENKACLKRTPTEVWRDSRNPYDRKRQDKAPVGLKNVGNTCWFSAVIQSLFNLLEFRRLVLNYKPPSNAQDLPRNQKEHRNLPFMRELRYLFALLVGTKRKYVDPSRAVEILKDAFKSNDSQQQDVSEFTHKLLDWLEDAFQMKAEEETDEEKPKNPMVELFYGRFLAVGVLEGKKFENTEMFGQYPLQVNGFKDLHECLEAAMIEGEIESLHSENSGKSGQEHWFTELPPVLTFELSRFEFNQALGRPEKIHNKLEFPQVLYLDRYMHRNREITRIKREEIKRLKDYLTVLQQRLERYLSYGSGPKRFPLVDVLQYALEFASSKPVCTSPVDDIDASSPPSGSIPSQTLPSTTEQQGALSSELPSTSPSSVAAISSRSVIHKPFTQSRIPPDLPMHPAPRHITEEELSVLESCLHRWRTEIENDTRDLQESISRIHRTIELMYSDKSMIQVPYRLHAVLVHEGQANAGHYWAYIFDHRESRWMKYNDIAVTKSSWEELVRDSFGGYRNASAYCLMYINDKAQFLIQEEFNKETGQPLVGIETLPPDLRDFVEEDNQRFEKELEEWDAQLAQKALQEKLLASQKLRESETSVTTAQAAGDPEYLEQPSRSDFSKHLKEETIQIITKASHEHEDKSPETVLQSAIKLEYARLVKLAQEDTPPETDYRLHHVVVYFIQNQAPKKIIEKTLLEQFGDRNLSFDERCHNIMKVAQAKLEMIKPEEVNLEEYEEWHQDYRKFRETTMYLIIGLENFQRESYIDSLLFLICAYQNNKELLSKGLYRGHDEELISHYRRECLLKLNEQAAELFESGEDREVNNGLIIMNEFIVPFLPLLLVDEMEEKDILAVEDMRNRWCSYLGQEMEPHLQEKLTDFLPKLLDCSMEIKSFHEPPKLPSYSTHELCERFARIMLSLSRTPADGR

[2] = test system: LS174T; experiment: Antiproliferative activity against human LS174T cells assessed as effect on Bcl-2 protein level at 20 to 60 uM incubated for 1 day by western blotting analysis; assay type: functional, cell-based; conditions: dose 20-60 µM
[3] = biological target: Ubiquitin carboxyl-terminal hydrolase 7 (Homo sapiens) (UniProt Q93009); experiment: Inhibition of USP7 (208 to 560 residues) (unknown origin) expressed in Escherichia coli BL21 (DE3) using Ub-AMC as substrate at 5 uM by fluorescence based analysis
Ubiquitin carboxyl-terminal hydrolase 7 (Homo sapiens), sequence (Q93009 whole entry, looked up, the tested form may be a part): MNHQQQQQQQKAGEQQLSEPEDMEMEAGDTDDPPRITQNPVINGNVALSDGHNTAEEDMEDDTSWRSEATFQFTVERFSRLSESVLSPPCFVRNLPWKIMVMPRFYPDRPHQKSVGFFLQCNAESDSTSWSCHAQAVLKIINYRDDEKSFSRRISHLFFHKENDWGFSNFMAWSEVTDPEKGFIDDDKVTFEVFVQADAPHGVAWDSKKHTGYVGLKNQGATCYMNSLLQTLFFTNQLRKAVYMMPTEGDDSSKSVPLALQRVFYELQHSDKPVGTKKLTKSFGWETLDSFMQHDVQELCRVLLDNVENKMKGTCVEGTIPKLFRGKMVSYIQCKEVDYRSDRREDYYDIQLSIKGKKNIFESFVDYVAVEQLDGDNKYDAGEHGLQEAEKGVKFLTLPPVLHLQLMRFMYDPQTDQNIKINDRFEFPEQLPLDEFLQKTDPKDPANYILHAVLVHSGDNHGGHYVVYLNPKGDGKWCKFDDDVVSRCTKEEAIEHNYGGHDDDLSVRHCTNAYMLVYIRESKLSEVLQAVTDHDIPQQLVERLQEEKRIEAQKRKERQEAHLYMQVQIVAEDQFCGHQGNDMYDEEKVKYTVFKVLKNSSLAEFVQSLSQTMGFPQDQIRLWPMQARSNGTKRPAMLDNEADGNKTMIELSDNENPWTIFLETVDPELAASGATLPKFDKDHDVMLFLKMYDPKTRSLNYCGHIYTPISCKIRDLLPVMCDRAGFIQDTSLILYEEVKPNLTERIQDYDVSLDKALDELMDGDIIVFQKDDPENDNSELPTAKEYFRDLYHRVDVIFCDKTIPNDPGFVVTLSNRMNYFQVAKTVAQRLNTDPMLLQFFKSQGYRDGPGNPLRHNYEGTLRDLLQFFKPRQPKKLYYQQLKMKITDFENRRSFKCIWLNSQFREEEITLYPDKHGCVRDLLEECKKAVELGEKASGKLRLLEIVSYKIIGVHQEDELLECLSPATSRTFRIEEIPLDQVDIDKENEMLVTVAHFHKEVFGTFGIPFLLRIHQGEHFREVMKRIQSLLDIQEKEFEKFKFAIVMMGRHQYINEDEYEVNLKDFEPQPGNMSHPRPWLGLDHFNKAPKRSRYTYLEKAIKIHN

[4] = biological target: T2, Ubiquitin carboxyl-terminal hydrolase isozyme L5 (Homo sapiens) (UniProt Q9Y5K5); experiment: Inhibition of UCHL5 (1 to 228 residues) (unknown origin) expressed in Escherichia coli BL21 (DE3) using Ub-AMC as substrate at 5 uM by fluorescence based analysis
T2 sequence (whole entry): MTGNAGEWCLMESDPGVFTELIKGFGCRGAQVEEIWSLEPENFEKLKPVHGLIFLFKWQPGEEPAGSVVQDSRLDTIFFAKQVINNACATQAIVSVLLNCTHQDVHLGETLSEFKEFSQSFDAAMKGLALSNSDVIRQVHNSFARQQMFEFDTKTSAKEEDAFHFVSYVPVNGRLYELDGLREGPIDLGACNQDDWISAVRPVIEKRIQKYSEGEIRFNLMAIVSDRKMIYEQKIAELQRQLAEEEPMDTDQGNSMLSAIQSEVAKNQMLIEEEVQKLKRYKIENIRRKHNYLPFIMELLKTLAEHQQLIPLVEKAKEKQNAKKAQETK

[5] = biological target: T3, Ubiquitin carboxyl-terminal hydrolase 8 (Homo sapiens) (UniProt P40818); experiment: Inhibition of USP8 (734 to 1110 residues) (unknown origin) expressed in Escherichia coli BL21 (DE3) using Ub-AMC as substrate at 5 uM by fluorescence based analysis
T3 sequence (whole entry): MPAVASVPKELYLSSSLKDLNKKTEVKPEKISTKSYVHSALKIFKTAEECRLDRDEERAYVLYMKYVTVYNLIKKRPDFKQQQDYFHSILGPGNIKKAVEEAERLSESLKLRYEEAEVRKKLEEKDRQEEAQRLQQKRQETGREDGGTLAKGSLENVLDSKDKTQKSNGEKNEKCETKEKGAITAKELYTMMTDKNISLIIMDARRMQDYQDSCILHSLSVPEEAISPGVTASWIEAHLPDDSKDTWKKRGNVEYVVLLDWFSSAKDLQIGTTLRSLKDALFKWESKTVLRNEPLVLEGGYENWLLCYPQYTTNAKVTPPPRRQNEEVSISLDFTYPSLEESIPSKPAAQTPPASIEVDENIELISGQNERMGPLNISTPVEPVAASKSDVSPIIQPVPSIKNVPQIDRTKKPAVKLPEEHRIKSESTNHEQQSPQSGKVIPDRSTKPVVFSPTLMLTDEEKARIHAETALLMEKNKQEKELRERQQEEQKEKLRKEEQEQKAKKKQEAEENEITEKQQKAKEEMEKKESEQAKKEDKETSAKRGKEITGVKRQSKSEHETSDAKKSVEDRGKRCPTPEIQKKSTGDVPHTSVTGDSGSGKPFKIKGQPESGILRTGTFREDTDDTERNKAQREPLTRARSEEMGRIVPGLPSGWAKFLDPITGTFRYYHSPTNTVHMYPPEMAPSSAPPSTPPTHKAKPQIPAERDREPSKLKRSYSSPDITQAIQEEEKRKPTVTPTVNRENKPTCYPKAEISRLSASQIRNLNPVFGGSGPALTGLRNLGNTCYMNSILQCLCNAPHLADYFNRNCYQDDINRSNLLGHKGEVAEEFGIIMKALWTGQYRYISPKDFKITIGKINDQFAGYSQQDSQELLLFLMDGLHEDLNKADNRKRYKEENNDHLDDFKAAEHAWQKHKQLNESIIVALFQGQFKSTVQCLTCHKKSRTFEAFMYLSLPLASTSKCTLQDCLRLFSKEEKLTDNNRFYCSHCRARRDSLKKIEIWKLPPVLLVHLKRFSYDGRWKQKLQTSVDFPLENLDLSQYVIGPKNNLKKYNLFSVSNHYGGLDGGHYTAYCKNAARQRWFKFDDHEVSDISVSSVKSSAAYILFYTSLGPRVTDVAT

[6] = test system: LS174T; experiment: Antiproliferative activity against human LS174T cells assessed as cell growth inhibition incubated for 3 days by SRB assay; assay type: functional, cell-based; conditions: 72 h
[7] = test system: HCT-116; experiment: Antiproliferative activity against human HCT-116 cells assessed as cell growth inhibition incubated for 3 days by SRB assay; assay type: functional, cell-based; conditions: HCT-116, 72 h

Row | SMILES | inhibition [1] | Activity [2] | inhibition [3] | inhibition [4] | inhibition [5] | IC50 [6] [µM] | IC50 [7] [µM]
1 | CS(=O)(=O)c1ccc(C(=O)Nc2ccc(Cl)c(-c3ccc4c(c3)CCNC4)c2)c(Cl)c1 | Active | inactive | Active | Active | Active | 19.9 | 24.2
2 | CS(=O)(=O)c1ccc(C(=O)Nc2ccc(Cl)c(-c3ccc4c(c3)CNC4)c2)c(Cl)c1 | Active | inactive | Active | Active | Active | 24.3 | 38.1
3 | CS(=O)(=O)c1ccc(C(=O)Nc2ccc(Cl)c(-c3ccc(C4(N)CC4)cc3)c2)c(Cl)c1 | Active | inactive | Active | Active | Active | 21.9 | 26
